In ChEMBL document CHEMBL1201862, “PubChem BioAssay data set” (2004):
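Test compounds were applied to cells in 96-well plates for 48 hours at 5 doses. GI50 is the concentration that inhibits growth by half.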 Activity calls are given as the source filed them. Rule as the data show it: active = GI50 up to about 1.1 µM and inactive = higher.

Key:
Test in all cases: NCI-60 cell line screen, 48 h
T47D = system: T47D
HCC 2998 = system: HCC 2998
DU-145 = system: DU-145
EKVX = system: EKVX
Hs-578T = system: Hs-578T
HCT-15 = system: HCT-15
SF-295 = system: SF-295
MOLT-4 = system: MOLT-4
NCI-H226 = system: NCI-H226
HT-29 = system: HT-29
A549 = system: A549
HOP-62 = system: HOP-62
NCI/ADR-RES = system: NCI/ADR-RES
COLO 205 = system: COLO 205
HCT-116 = system: HCT-116
NCI-H522 = system: NCI-H522
A498 = system: A498
OVCAR-4 = system: OVCAR-4
BT-549 = system: BT-549
Malme-3M = system: Malme-3M
K562 = system: K562
TK-10 = system: TK-10
UO-31 = system: UO-31
SK-MEL-2 = system: SK-MEL-2
SNB-19 = system: SNB-19
SF-268 = system: SF-268
OVCAR-5 = system: OVCAR-5
RPMI-8226 = system: RPMI-8226
RXF 393 = system: RXF 393
MDA-MB-231 = system: MDA-MB-231
NCI-H460 = system: NCI-H460
IGROV-1 = system: IGROV-1
CAKI-1 = system: CAKI-1
CCRF-CEM = system: CCRF-CEM
OVCAR-8 = system: OVCAR-8
KM12 = system: KM12
MCF7 = system: MCF7
OVCAR-3 = system: OVCAR-3
UACC-62 = system: UACC-62
LOX IMVI = system: LOX IMVI
SR = system: SR
UACC-257 = system: UACC-257
PC-3 = system: PC-3
U-251 = system: U-251
SF-539 = system: SF-539
HL-60 = system: HL-60
NCI-H23 = system: NCI-H23
ACHN = system: ACHN
M14 = system: M14
SN12C = system: SN12C
786-0 = system: 786-0
SNB-75 = system: SNB-75
HOP-92 = system: HOP-92
SK-MEL-28 = system: SK-MEL-28
SW-620 = system: SW-620
SK-MEL-5 = system: SK-MEL-5
MDA-MB-435 = system: MDA-MB-435
SK-OV-3 = system: SK-OV-3
MDA-N = system: MDA-N

SMILES: Clc1cc2ccccc2c2ccccc12
- GI50 (T47D): 32 µM (inactive)
- GI50 (HCC 2998): 41 µM (inactive)
- GI50 (DU-145): 43 µM (inactive)
- GI50 (EKVX): 41.5 µM (inactive)
- GI50 (Hs-578T): 65.6 µM (inactive)
- GI50 (HCT-15): 25.6 µM
- GI50 (SF-295): 45.3 µM (inactive)
- GI50 (MOLT-4): 69.2 µM (inactive)
- GI50 (NCI-H226): > 100 µM (inactive)
- GI50 (HT-29): 32.4 µM (inactive)
- GI50 (A549): 44 µM (inactive)
- GI50 (HOP-62): > 100 µM (inactive)
- GI50 (NCI/ADR-RES): > 100 µM (inactive)
- GI50 (COLO 205): 26.9 µM (inactive)
- GI50 (HCT-116): > 100 µM (inactive)
- GI50 (NCI-H522): 33.8 µM (inactive)
- GI50 (A498): > 100 µM (inactive)
- GI50 (OVCAR-4): 42.1 µM (inactive)
- GI50 (BT-549): 49.2 µM (inactive)
- GI50 (Malme-3M): 37 µM (inactive)
- GI50 (K562): 42.1 µM (inactive)
- GI50 (TK-10): > 100 µM (inactive)
- GI50 (UO-31): 97.3 µM (inactive)
- GI50 (SK-MEL-2): 27.5 µM (inactive)
- GI50 (SNB-19): 43 µM (inactive)
- GI50 (SF-268): 74 µM (inactive)
- GI50 (OVCAR-5): > 100 µM (inactive)
- GI50 (RPMI-8226): 31.9 µM (inactive)
- GI50 (RXF 393): 32.8 µM (inactive)
- GI50 (MDA-MB-231): > 100 µM (inactive)
- GI50 (NCI-H460): 44.8 µM (inactive)
- GI50 (IGROV-1): 64 µM (inactive)
- GI50 (CAKI-1): 42 µM (inactive)
- GI50 (CCRF-CEM): < 0.01 µM (active)
- GI50 (OVCAR-8): > 100 µM (inactive)
- GI50 (KM12): 47.9 µM (inactive)
- GI50 (MCF7): 31.7 µM (inactive)
- GI50 (OVCAR-3): 52.2 µM (inactive)
- GI50 (UACC-62): 62.4 µM (inactive)
- GI50 (LOX IMVI): 53.7 µM (inactive)
- GI50 (SR): 30.8 µM (inactive)
- GI50 (UACC-257): 55.2 µM (inactive)
- GI50 (PC-3): 50.2 µM (inactive)
- GI50 (U-251): 44 µM (inactive)
- GI50 (SF-539): 64 µM (inactive)
- GI50 (HL-60): 35.2 µM (inactive)
- GI50 (NCI-H23): 81.5 µM (inactive)
- GI50 (ACHN): 82.2 µM (inactive)
- GI50 (M14): 31.5 µM (inactive)
- GI50 (SN12C): 86.3 µM (inactive)
- GI50 (786-0): > 100 µM (inactive)
- GI50 (SNB-75): > 100 µM (inactive)
- GI50 (HOP-92): 38.5 µM (inactive)
- GI50 (SK-MEL-28): 46.2 µM (inactive)
- GI50 (SW-620): 90.6 µM (inactive)
- GI50 (SK-MEL-5): 63.2 µM (inactive)
- GI50 (MDA-MB-435): 28.2 µM (inactive)

SMILES: CNC1(c2cc3ccccc3s2)CCCCC1
- GI50 (HCC 2998): 14.9 µM (inactive)
- GI50 (DU-145): 40.1 µM (inactive)
- GI50 (EKVX): 0.433 µM (active)
- GI50 (HCT-15): 31.8 µM
- GI50 (SF-295): 25 µM (inactive)
- GI50 (MOLT-4): 42.2 µM (inactive)
- GI50 (NCI-H226): 32.7 µM (inactive)
- GI50 (HT-29): 14.8 µM (inactive)
- GI50 (A549): 48.1 µM (inactive)
- GI50 (HOP-62): 33.9 µM (inactive)
- GI50 (NCI/ADR-RES): 33.3 µM (inactive)
- GI50 (COLO 205): 18.9 µM (inactive)
- GI50 (HCT-116): 41.5 µM (inactive)
- GI50 (NCI-H522): 12.7 µM (inactive)
- GI50 (A498): 33.3 µM (inactive)
- GI50 (OVCAR-4): 27.7 µM (inactive)
- GI50 (BT-549): 67 µM (inactive)
- GI50 (K562): 31.8 µM (inactive)
- GI50 (TK-10): 44.2 µM (inactive)
- GI50 (UO-31): 46.9 µM (inactive)
- GI50 (SNB-19): 41.8 µM (inactive)
- GI50 (SF-268): 14.2 µM (inactive)
- GI50 (OVCAR-5): 20.5 µM (inactive)
- GI50 (RXF 393): 23.4 µM (inactive)
- GI50 (MDA-MB-231): 23.2 µM (inactive)
- GI50 (NCI-H460): 17.7 µM (inactive)
- GI50 (IGROV-1): 19.1 µM (inactive)
- GI50 (CAKI-1): 42.1 µM (inactive)
- GI50 (CCRF-CEM): < 0.01 µM (active)
- GI50 (OVCAR-8): 37.2 µM (inactive)
- GI50 (KM12): 17.9 µM (inactive)
- GI50 (MCF7): 29.5 µM (inactive)
- GI50 (OVCAR-3): 28.2 µM (inactive)
- GI50 (UACC-62): 20.6 µM (inactive)
- GI50 (SK-OV-3): 39 µM (inactive)
- GI50 (LOX IMVI): 19.9 µM (inactive)
- GI50 (SR): 25 µM (inactive)
- GI50 (UACC-257): 18.2 µM (inactive)
- GI50 (PC-3): 18.1 µM (inactive)
- GI50 (U-251): 17.8 µM (inactive)
- GI50 (SF-539): 20.4 µM (inactive)
- GI50 (HL-60): < 0.01 µM (active)
- GI50 (NCI-H23): 57.4 µM (inactive)
- GI50 (ACHN): 42.6 µM (inactive)
- GI50 (M14): 18 µM (inactive)
- GI50 (SN12C): 38.1 µM (inactive)
- GI50 (786-0): 19.2 µM (inactive)
- GI50 (MDA-N): 19.9 µM (inactive)
- GI50 (SNB-75): 21.5 µM (inactive)
- GI50 (HOP-92): 14.3 µM (inactive)
- GI50 (SW-620): < 0.01 µM (active)
- GI50 (SK-MEL-5): 16.3 µM (inactive)
- GI50 (MDA-MB-435): 16.8 µM (inactive)

SMILES: COC(=O)c1csc(-c2csc(CCNC(=O)OC(C)(C)C)n2)n1
- GI50 (HCC 2998): > 100 µM (inactive)
- GI50 (DU-145): > 100 µM (inactive)
- GI50 (EKVX): > 100 µM (inactive)
- GI50 (Hs-578T): > 100 µM (inactive)
- GI50 (HCT-15): > 100 µM
- GI50 (SF-295): > 100 µM (inactive)
- GI50 (MOLT-4): 42.7 µM (inactive)
- GI50 (NCI-H226): > 100 µM (inactive)
- GI50 (HT-29): > 100 µM (inactive)
- GI50 (A549): > 100 µM (inactive)
- GI50 (HOP-62): > 100 µM (inactive)
- GI50 (NCI/ADR-RES): 54.3 µM (inactive)
- GI50 (COLO 205): > 100 µM (inactive)
- GI50 (HCT-116): > 100 µM (inactive)
- GI50 (A498): 26.1 µM (inactive)
- GI50 (BT-549): 40.4 µM (inactive)
- GI50 (Malme-3M): > 100 µM (inactive)
- GI50 (K562): > 100 µM (inactive)
- GI50 (TK-10): > 100 µM (inactive)
- GI50 (UO-31): > 100 µM (inactive)
- GI50 (SNB-19): > 100 µM (inactive)
- GI50 (SF-268): > 100 µM (inactive)
- GI50 (OVCAR-5): > 100 µM (inactive)
- GI50 (RPMI-8226): > 100 µM (inactive)
- GI50 (RXF 393): > 100 µM (inactive)
- GI50 (NCI-H460): > 100 µM (inactive)
- GI50 (IGROV-1): > 100 µM (inactive)
- GI50 (CCRF-CEM): 43.5 µM (inactive)
- GI50 (OVCAR-8): > 100 µM (inactive)
- GI50 (KM12): > 100 µM (inactive)
- GI50 (MCF7): > 100 µM (inactive)
- GI50 (OVCAR-3): > 100 µM (inactive)
- GI50 (UACC-62): 59.7 µM (inactive)
- GI50 (SK-OV-3): > 100 µM (inactive)
- GI50 (SR): 59.7 µM (inactive)
- GI50 (UACC-257): > 100 µM (inactive)
- GI50 (PC-3): 56.1 µM (inactive)
- GI50 (U-251): > 100 µM (inactive)
- GI50 (SF-539): > 100 µM (inactive)
- GI50 (HL-60): > 100 µM (inactive)
- GI50 (NCI-H23): > 100 µM (inactive)
- GI50 (ACHN): > 100 µM (inactive)
- GI50 (M14): > 100 µM (inactive)
- GI50 (SN12C): > 100 µM (inactive)
- GI50 (786-0): > 100 µM (inactive)
- GI50 (MDA-N): > 100 µM (inactive)
- GI50 (SNB-75): 51.8 µM (inactive)
- GI50 (HOP-92): > 100 µM (inactive)
- GI50 (SK-MEL-28): > 100 µM (inactive)
- GI50 (SW-620): > 100 µM (inactive)
- GI50 (SK-MEL-5): 90.6 µM (inactive)
- GI50 (MDA-MB-435): > 100 µM (inactive)
